Like-named read-outs stand apart in the source and are kept apart here. No end group written: not given here.
Key:
[1] = test system: male mongrel dogs with overt chronic heart failure produced by rapid ventricular pacing; test: LV remodeling (echocardiography FS, CO, LV mass, plasma BNP) after 10 days of PDE V inhibitor in pacing-induced CHF; type: in vivo, dog
Procedure: (§1) A model of pacing-induced overt chronic heart failure was used (Chen et al., Circulation, 100:2443-2448 (1999)). Briefly, all dogs underwent implantation of a programmable cardiac pacemaker (Medtronic, Minneapolis, Minn.). Under pentobarbital sodium anesthesia (30 mg/kg, intravenous) and artificial ventilation (Harvard respirator, Harvard Apparatus, Millis, Mass.) with 5 L/min supplemental oxygen, a left lateral thoracotomy and pericardiotomy were performed. With the heart exposed, a screw-in epicardial pacemaker lead was implanted into the right ventricle. The pacemaker generator was implanted subcutaneously into the left chest wall and connected to the pacemaker lead. Dogs received pre- and post-operative prophylactic antibiotic treatment with 225 mg clindamycin subcutaneously and 400,000 U procaine penicillin G plus 500 mg dihydrostreptomycin intramuscularly (Combiotic, Pfizer, Inc., New York, N.Y.). Post-operative prophylactic antibiotic was continued through the first two post-operative days. Dogs were fed a fixed sodium diet (58 mEq/day, Hill's ID) and allowed water ad lib. All dogs were walked daily. Appetite, activity, body temperature, and condition of surgical skin sites were documented. Following a 14-day post-operative recovery period, the pacemaker was turned on at 240 bpm.
Echocardiography was carried out at baseline before the pacemaker was turned on and at day 10 of pacing to determine LV fractional shortening (FS). Echocardiographic images were obtained in the conscious dog standing in a minimally restraining sling. Simultaneous electrocardiography was obtained. The optimal images were generally obtained from the right lateral chest wall just above the sternum at the equivalent of the anterior axillary line. Images analogous to the para-sternal long axis and para-sternal short axis views (human echocardiography) were consistently obtained at the base, mid-ventricular, and para-apical levels. LV two-dimensional (2D) and M-mode images were obtained with a 2.5-MHz ultrasonic transducer (General Electric Systems Five). LV M-mode tracings were obtained under 2D guidance using the 2D short-axis views between the two papillary muscles just distal to the mitral valve leaflet tips. All images were obtained in sinus rhythm. Care was taken to ensure that the M-mode cursor transects the LV in the midline, that the LV image is “on axis” (LV is round, not oval indicating an image between short and long axes), and that the cursor is perpendicular to the LV wall detecting maximal LV thickening of both the septal and posterior walls. End-diastole was defined as the maximal LV diastolic diameter at the peak of the R wave on the EKG, and end-systole was defined as the peak of the LV posterior wall motion. M-mode measurements were made in accordance with the American Society of Echocardiography leading-edge convention using the steepest continuous endocardial echoes. Measurements included LV end-diastolic (LVDd), and end-systolic dimensions (LVDs) were averaged for average dimension. FS (%)=[(LVDd−LVSd)/LVDd]*100.
(§2) Glomerular filtration rate (GFR) was measured by inulin clearance.
At the end of the acute experiment, the heart was harvested, and the LV was carefully dissected out and weighed to determine LV mass. The LV mass was divided by the body weight to give the LV mass/Kg body weight.
(§3) Results were expressed as mean ±SEM. […] GraphPad Prism software was used for the above calculation. Statistical significance was accepted as p<0.05.

[2] = test system: male mongrel dogs with overt chronic heart failure produced by rapid ventricular pacing; test: Cardiorenal and neurohumoral profile on day 11 of pacing-induced CHF; type: in vivo, dog
Procedure: as §1, with “bpm. […]” for “bpm.”
as §2, §3

[3] = test system: male mongrel dogs with overt chronic heart failure produced by rapid ventricular pacing; test: Humoral, hemodynamic and renal response to acute SQ BNP on day 11 of pacing-induced CHF
Procedure: (§4) Studies were conducted in 2 groups of male mongrel dogs (18-23 kg) with overt chronic heart failure produced by rapid ventricular pacing at 240 beats per minute (bpm) for ten days on a fixed sodium diet. Group 1 (n=6) received Sildenafil (50 mg orally three times a day) during the 10 days of pacing and one dose an hour before the subcutaneous (SQ) administration of BNP on day 11. Group 2 (n=6) received no PDE V inhibitor, but did receive SQ BNP alone on day 11 of CHF.
(§5) Acute SQ BNP administration was performed as follows. On day 11 of rapid ventricular pacing at 240 bpm, an experiment was carried out to determine the cardiorenal and humoral function in both groups and also the response to acute SQ BNP administration (5 μg/kg). […] On the morning of the experiment, only group 1 received a final dose of Sildenafil 50 mg one hour before the dogs were anesthetized with sodium pentobarbital (15 mg/kg, i.v.), intubated, and mechanically ventilated with supplemental oxygen (Harvard respirator, Amersham, Millis, Mass.) at 20 cycles per minute. A flow-directed balloon-tipped thermodilution catheter (Ohmeda, Criticath, Madison, Wis.) was advanced into the pulmonary artery via the external jugular vein for cardiac hemodynamic measurement. The femoral artery was cannulated for blood pressure monitoring and blood sampling. The femoral vein was also cannulated for inulin and normal saline infusion. The left kidney was exposed via a flank incision, and the ureter was cannulated for urine collection. A calibrated electromagnetic flow probe was placed around the renal artery to measure renal blood flow (RBF).
(§6) The experiment began after a 60-minute equilibration period, with a 30-minute baseline urinary clearance. After the 30-minute baseline urinary clearance, SQ canine BNP 5 μg/kg was administered in the right hind leg. Following a 15-minute lead-in period, a 60-minute urinary clearance period was performed. Cardiovascular parameters measured during the acute experiment included mean arterial blood pressure (MAP), right atrial pressure (RAP), mean pulmonary arterial pressure (PAP), cardiac output (CO), and pulmonary capillary wedge pressure (PCWP). CO was determined by thermodilution in triplicate and averaged (Cardiac Output model 9510-A computer, American Edwards Laboratories, Irvine, Calif.). MAP was assessed via direct measurement from the femoral arterial catheter. Systemic vascular resistance (SVR) was calculated as [SVR=(MAP−RAP)/CO]. Inulin was administered intravenously at the start of the equilibration period as a calculated bolus, followed by a 1 mL/min continuous infusion to achieve plasma levels of 40-60 mg/dL. Glomerular filtration rate (GFR) was measured by inulin clearance.
(§7) Cardiovascular hemodynamics were measured at the start of each urinary clearance. Arterial blood was collected in heparin and EDTA tubes and immediately placed on ice midway through each clearance. After centrifugation at 2,500 rpm at 4° C., plasma was decanted and stored at −20° C. until analysis. Urine was collected on ice during the entire period of each clearance for assessment of urine volume, electrolytes, and inulin. Urine collected for cGMP analysis was heated to more than 90° C. before storage.
(§8) Plasma samples for BNP renin and angiotensin II were measured by radioimmunoassay (RIA) using methods described elsewhere (Chen et al., Circulation, 96:I-524 (1997)). Plasma and urinary samples for cGMP were measured by RIA using methods described elsewhere (Steiner et al., J. Biol. Chem., 247:1106-1113 (1972)). Urinary and plasma inulin concentrations were measured by the anthrone method (Davidson and Sachner, J. Lab. Clin. Med., 62:351-356 (1963)).

[4] = test system: male mongrel dogs with overt chronic heart failure produced by rapid ventricular pacing; settings: dog, in vivo
Procedure: as §4, §5, §6, §7, §8

[5] = 10 days of treatment, compared to the untreated group (FIG. 1)
[6] = chronic administration in experimental overt CHF
[7] = Sildenafil 50 mg orally three times a day for 10 days of pacing, mean ± SE
[8] = Sildenafil 50 mg orally three times a day for 10 days, P < 0.05 versus Untreated
[9] = PDE V inhibitor-treated group, Baseline (before SQ BNP)
[10] = PDE V inhibitor-treated group, SQ BNP (FIG. 2)
[11] = PDE V inhibitor-treated group, after SQ BNP
[12] = PDE V inhibitor-treated group, after SQ canine BNP 5 μg/kg (combination)
[13] = Untreated CHF group (no PDE V inhibitor), after SQ canine BNP 5 μg/kg alone
[14] = untreated group (no PDE V inhibitor), SQ BNP alone (FIG. 2)

CCCc1nn(C)c2c(=O)[nH]c(-c3cc(S(=O)(=O)N4CCN(C)CC4)ccc3OCC)nc12 [PDE V inhibitor, Sildenafil]
CO (cardiac output) [1, 5]: improvement | LV FS (fractional shortening) [1, 5]: improvement | LV mass [1, 5]: reduction in LV mass | plasma BNP levels [1, 5]: strong trend for plasma BNP levels to be lower | LV remodeling [1, 6]: improved LV remodeling | MAP [2, 7]: 110 ± 4 mmHg | PAP [2, 7]: 27 ± 1 mmHg | PCWP [2, 7]: 23 ± 1 mmHg | RAP [2, 7]: 11 ± 1 mmHg | RBF [2, 7]: 160 ± 21 mL/min | UNaV [2, 7]: 2 ± 1 μEq/min | UV [2, 7]: 0.12 ± 0.01 mL/min | Plasma cGMP [2, 8]: 43 ± 2 pmol/mL | Urinary cGMP [2, 8]: 4219 ± 900 pmol/min | GFR ([2]; Sildenafil 50 mg orally three times a day for 10 days, inulin clearance): 30 ± 5 mL/min | MAP [3, 9]: 110 ± 4 | PAP [3, 9]: 27 ± 1 | PCWP [3, 9]: 23 ± 1 | Plasma Ang II [3, 9]: 124 ± 2 | Plasma Renin [3, 9]: 16 ± 2 | Plasma cGMP [3, 9]: 43 ± 2 pmol/mL | RAP [3, 9]: 11 ± 1 | Urinary cGMP Excretion [3, 9]: 4219 ± 900 fmol/min | GFR change with SQ BNP [3, 10]: increase in GFR | PTFNa change with SQ BNP [3, 10]: decreased significantly | UNaV change with SQ BNP [3, 10]: increased | CO with SQ BNP [3, 11]: unchanged | plasma BNP levels with SQ BNP [3, 11]: increased similarly | MAP [3, 12]: 103 ± 7 | PAP [3, 12]: 23 ± 1 | PCWP [3, 12]: 18 ± 1 | Plasma Ang II [3, 12]: 37 ± 2 | Plasma Renin [3, 12]: 9 ± 2 | Plasma cGMP [3, 12]: 46 ± 3 pmol/mL | RAP [3, 12]: 8 ± 1 | Urinary cGMP Excretion [3, 12]: 8600 ± 1600 fmol/min | cardiovascular hemodynamic effects ([3]; chronic Sildenafil with acute SQ BNP in experimental overt CHF): without adverse cardiovascular hemodynamic effects | renal response to acute SQ BNP [3, 6]: enhanced

BNP: canine brain natriuretic peptide administered subcutaneously at 5 μg/kg (SPKMMHKSGCFGRRLDRIGSLSGLGCNVLRKY; ends and bridges not checked; cysteine pairing not given here; UniProt P16859 109-140, looked up)
plasma BNP levels with SQ BNP [4]: increased similarly | MAP [3, 13]: 110 ± 5 | PAP [3, 13]: 25 ± 1 | PCWP [3, 13]: 20 ± 1 | Plasma Ang II [3, 13]: 73 ± 31 | Plasma Renin [3, 13]: 20 ± 5 | Plasma cGMP [3, 13]: 25 ± 3 pmol/mL | RAP [3, 13]: 6 ± 1 | Urinary cGMP Excretion [3, 13]: 3580 ± 351 fmol/min | GFR change with SQ BNP [3, 14]: not observed | PTFNa change with SQ BNP [3, 14]: only trended to change | UNaV change with SQ BNP [3, 14]: only trended to change | CO with SQ BNP ([3]; untreated group, after SQ BNP alone): unchanged
